Test results: US4116950A, “Analogs of human β-endorphin” (Hoffmann-La Roche Inc., priority 1978, dated 1978)

What was measured:
[1] = test system: mice; test: Analgesic potency in mice by tail-flick method (in vivo); settings: for AD50: mice, tail-flick; for relative potency: molar basis, AD50 of βh-endorphin as 100%
From the text: (§1) In vitro assay of opiate activity was by the guinea pig ileum method of Kosterlitz et al, Brit. J. Pharmacol. 39, 398 (1970) and in vivo assay in mice was by the tail-flick method of D'Amour and Smith, J. Pharmacol. Exp. Therap. 72, 74 (1941). The experimental procedure and method of calculation has been outlined by Loh et al., Proc. Natl. Acad. Sci. 73, 2895 (1976) and Tseng et al., Nature 263, 239 (1976).

[2] = test system: guinea pig ileum; test: Opiate activity by guinea pig ileum assay (in vitro); type: cell-based; settings: for relative potency: calculated using the IC50 of βh-endorphin as 100%; for IC50: guinea pig ileum assay
From the text: as §1

Row | Substance | AD50 ([1]; intracerebroventricular) | relative potency ([1]; intracerebroventricular) | AD50 ([1]; intravenous) | relative potency ([1]; intravenous) | relative potency [2] | IC50 [2] | duration of analgesic activity ([1]; after iv injection compared with icv injection) | in vivo analgesic activity compared with βh-endorphin ([1]; mouse, iv or icv, in words)
1 | [Ala^6,7, Phe^27, Gly^31 ] - βh -EP (YGGFMAAEKSQTPLVTLFKNAIIKNAFKKGG; Beta-endorphin; UniProt P01189 237-267, looked up, variant T6A S7A Y27F E31G) [Peptide II, analog of human β-endorphin substituted with Ala at 6 and 7, Phe at 27, Gly at 31] | 0.46(0.28-0.77) μg/mouse | 23% | 22.1(14.3-34.3) mg/kg | 49% | 118% | 38 nM | – | –
2 | [D-Thr^2, Phe^27, Gly^31 ] - βh EP [Peptide IV] | 0.52(0.24-1.16) μg/mouse | 21% | ca. 32.0 mg/kg | 32% | 136% | 33 nM | – | –
3 | [Nle^5, Phe^27, Gly^31 ] - βh -EP [Peptide III] | 0.31(0.14-0.72) μg/mouse | 35% | ca. 17.0 mg/kg | 65% | 118% | 38 nM | – | –
4 | [Phe^27, Gly^31 ] - βh -EP (YGGFMTSEKSQTPLVTLFKNAIIKNAFKKGG; Beta-endorphin; UniProt P01189 237-267, looked up, variant Y27F E31G) [Peptide I, analog of human β-endorphin substituted with Phe at 27 and Gly at 31] | 0.09(0.08-0.11) μg/mouse | 119% | 7.5(3.4-16.5) mg/kg | 148% | 128% | 35 nM | shorter than after icv injection | greater in vivo analgesic activity than the natural peptide
5 | βh -endorphin [reference compound] | 0.11(0.07-0.17) μg/mouse | 100% | 11.4(6.4-19.6) mg/kg | 100% | 100% | 45 nM | – | –
